Ahx = NCCCCCC(=O)O; Fl = fluorescein
test system: human T cell line, Jurkat; assay: cellular uptake assay of fluorescently labeled peptides (flow cytometry, mean fluorescent signal); type: cell-based; conditions: FIG. 1; single amino acid spacing without side chains (glycine, abu, aca); Jurkat cells
Description: The fluorescently labeled peptides were dissolved in PBS, pH 7.2, and their concentrations were determined by absorption of fluorescein at 490 nm (ε=67,000). The human T cell line, Jurkat, grown in 10% fetal calf serum in DMEM, was used for all the cellular uptake experiments. Varying amounts of the peptides were added to 3×10^5 cells in a total of 200λ, in wells of microtiter plates, and incubated for varying periods of time, ranging from three to five minutes. The cells were spun, washed three times with cold PBS, incubated with 0.05% trypsin/0.53 mM EDTA (Gibco, Grand Island, N.Y.) at 37° C. for five minutes, washed with PBS, and resuspended in PBS containing 0.1% propidium iodide. The cells were analyzed either using confocal microscopy or fluorescent flow cytometry (FACScan, Becton Dickinson, Milpitas, Calif.). Cells staining with propidium iodide were excluded from the analysis. Data presented is the mean fluorescent signal for the 5000 cells collected. To prevent cellular uptake of the peptides, the cells were treated with sodium azide (1.0%) for 25 minutes prior to exposure to the peptides.

Row | Compound | cellular uptake of spaced arginine transport moieties tethered to fluorescein, relative to R7 homopolymer
1 | Fl-aca-RGRRGRRGRR-CONH2 [Seq. I.D. No. 4] | ε-aminocaproic acid>γ-aminobutyric acid>glycine
2 | Fl-aca-RabuRRabuRRabuRR-CONH2 [Seq. I.D. No. 5] | ε-aminocaproic acid>γ-aminobutyric acid>glycine
3 | Fl-aca-RacaRRacaRRacaRR-CONH2 [Seq. I.D. No. 6] | ε-aminocaproic acid>γ-aminobutyric acid>glycine

same assay, conditions: FIG. 2; spacing by naturally occurring amino acids; fluorescein conjugates; Jurkat cells

Row | Compound | cellular uptake relative to the homopolymer R7 having no spacing
4 | N[C@@H](CC(=O)O)C(=O)O [Seq. I.D. No. 8] | Reduced, or comparable uptake
5 | N[C@@H](CCC(=O)O)C(=O)O [Seq. I.D. No. 9] | Reduced, or comparable uptake
6 | N[C@@H](Cc1c[nH]cn1)C(=O)O [Seq. I.D. No. 11] | increase in cellular uptake was found
7 | CC[C@H](C)[C@H](N)C(=O)O [Seq. I.D. No. 12] | increase in cellular uptake was found
8 | NCCCC[C@H](N)C(=O)O [Seq. I.D. No. 13] | increase in cellular uptake was found
9 | NC(=O)CC[C@H](N)C(=O)O [Seq. I.D. No. 18] | increase in cellular uptake was found
10 | C[C@@H](O)[C@H](N)C(=O)O [Seq. I.D. No. 20] | increase in cellular uptake was found
11 | N[C@@H](Cc1ccc(O)cc1)C(=O)O [Seq. I.D. No. 22] | Reduced, or comparable uptake
12 | Fl-aca-RARRARRARR-CONH2 [Seq. I.D. No. 7] | increase in cellular uptake was found
13 | Fl-aca-RFRRFRRFRR-CONH2 ({Fl-Ahx}-RFRRFRRFRR-NH2) [Seq. I.D. No. 10] | increase in cellular uptake was found
14 | Fl-aca-RGRRGRRGRR-CONH2 [Seq. I.D. No. 4] | increase in cellular uptake was found
15 | Fl-aca-RMRRMRRMRR-CONH2 [Seq. I.D. No. 15] | increase in cellular uptake was found
16 | Fl-aca-RNRRNRRNRR-CONH2 [Seq. I.D. No. 16] | increase in cellular uptake was found
17 | Fl-aca-RPRRPRRPRR-CONH2 [Seq. I.D. No. 17] | increase in cellular uptake was found
18 | Fl-aca-RSRRSRRSRR-CONH2 [Seq. I.D. No. 19] | increase in cellular uptake was found
19 | Fl-aca-RVRRVRRVRR-CONH2 [Seq. I.D. No. 21] | increase in cellular uptake was found

same assay, conditions: FIG. 4; 6.25 μM; Jurkat cells

Row | Compound | cellular uptake at the lower concentration
20 | Fl-aca-R7CONH2 [Seq. I.D. No. 2, reference compound] | begins to drop off

same assay, conditions: FIG. 6; compared with (RX)6R, X = aca, gly-gly or gly; Jurkat cells

Row | Compound | uptake (mean fluorescence) of (RX)6R transport oligomers versus homopolymers of D-arginine
21 | Fl-aca-r13-CONH2 [Seq. I.D. No. 28, reference compound] | significantly less effective in entering the cells
22 | Fl-aca-r19-CONH2 [Seq. I.D. No. 29, reference compound] | significantly less effective in entering the cells

— patent publication US7585834B2, “Transporters comprising spaced arginine moieties” (The Board of Trustees of the Leland Stanford Junior …, priority 2001, dated 2009)
